Each structure is given as a SMILES string.

The experiment deals with T1, Aryl Hydrocarbon Receptor (AHR) (Homo sapiens, UniProt P35869).
T1 sequence (P35869 11-848): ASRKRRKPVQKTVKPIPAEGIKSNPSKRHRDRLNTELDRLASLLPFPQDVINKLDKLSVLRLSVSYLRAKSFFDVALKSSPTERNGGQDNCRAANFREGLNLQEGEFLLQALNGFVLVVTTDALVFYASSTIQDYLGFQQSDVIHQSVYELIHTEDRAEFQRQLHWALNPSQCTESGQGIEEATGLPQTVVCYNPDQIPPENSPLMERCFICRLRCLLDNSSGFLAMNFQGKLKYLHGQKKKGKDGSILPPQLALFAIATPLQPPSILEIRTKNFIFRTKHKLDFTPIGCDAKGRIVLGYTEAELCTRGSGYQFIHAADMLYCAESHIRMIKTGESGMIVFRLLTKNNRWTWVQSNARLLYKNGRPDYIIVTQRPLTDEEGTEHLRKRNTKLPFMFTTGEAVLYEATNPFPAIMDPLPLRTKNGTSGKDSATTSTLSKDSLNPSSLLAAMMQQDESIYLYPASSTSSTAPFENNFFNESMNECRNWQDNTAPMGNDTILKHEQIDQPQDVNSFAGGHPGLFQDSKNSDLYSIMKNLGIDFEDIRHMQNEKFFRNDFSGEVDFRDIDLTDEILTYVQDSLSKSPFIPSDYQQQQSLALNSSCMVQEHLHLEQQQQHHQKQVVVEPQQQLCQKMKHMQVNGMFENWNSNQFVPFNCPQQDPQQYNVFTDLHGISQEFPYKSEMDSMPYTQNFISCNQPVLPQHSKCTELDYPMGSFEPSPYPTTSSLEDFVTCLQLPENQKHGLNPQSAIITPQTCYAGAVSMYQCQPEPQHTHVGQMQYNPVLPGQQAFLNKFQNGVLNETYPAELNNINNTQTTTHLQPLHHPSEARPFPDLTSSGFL
The experiment in a line: AHR luciferase reporter activation ([…]) in THP-1, Caco-2 and EA.hy926 cells. The experiment is classed as cell-based.

`O=C1/C(=C2\Nc3ccccc3C2=O)Nc2ccccc21` [indigo]: the “AHR luciferase reporter activation (1 uM) in THP-1, Caco-2 and EA.hy926 cells” value is on record as “AHR activation in THP-1 observed upon exposure to indigo, a known AHR agonist”.

The record behind these values is article PMC12820960, “Lactucopicrin: A Sesquiterpene Lactone with Anti-Inflammatory Activity Modulates the Crosstalk between NF-kB and AHR Pathways” (Journal of Medicinal Chemistry, 2025).
